Data: US11135153B2, “High penetration composition and uses thereof” (Techfields Pharma Co., Ltd., priority 2006, dated 2021)
Where two headings read alike, the source gives them in different places.

Experiments:
in vivo = details: mouse
[1] = Aqueous solubility of HPPs and parent drugs; assay type: physicochemical
[2] = In vitro penetration rate through human skin in modified Franz cells; assay type: in vitro ADME; details: isolated human skin 360-400 μm, 2 mL, 20% in 0.2 M phosphate buffer pH 7.4
Experimental: The penetration rates of HPPs of 4-aminophenol derivatives and their parent drugs through human skin were measured in vitro by modified Franz cells. […] The human skin tissue (360-400 μm thick) that separated the top and the receptor chambers was isolated from the anterior or posterior thigh areas.
The amount of the tested compound penetrating the skin was determined by high-performance liquid chromatography (HPLC) method.
The lowest detectable apparent flux values in this method was 1 μg/cm^2/h, the parent drugs tested (e.g. acetaminophen and acetaminosalol) had […], and the corresponding HPPs had higher apparent flux value.

[3] = Plasma levels of parent compounds after transdermal administration to hairless mice; assay type: in vivo; details: transdermal on 10 cm^2 back skin; for Plasma concentration of the parent compound (peak plasma level): 20% solution or suspension in 1 ml 70% ethanol; for t (time to peak plasma level of the parent compound): 20% in 1 ml 70% ethanol
Experimental: Test compounds (20% solution or suspension of HPPs or parent drugs in 1 ml of 70% ethanol) were administered transdermally to 10 cm^2 skin on the backs of hairless mice. The plasma levels of the parent compounds were determined by HPLC.

mice = assay: Analgesic activity, acetic acid writhing inhibition; assay type: in vivo; details: 100 mg/kg transdermally, versus control group
Experimental: Acetic acid solution was administered intraperitoneally to a group of mice (6 mice every group) 120 minutes after a test compound was administered to the mice at the dosage specified in the tables below. The prodrug compounds were administered either transdermally or orally. N-acetyl-p-aminophenyl dimethylaminobutyrate.HCl (100 mg/kg, B) and 4-acetamidophenyl 2((4-(dimethylamino)butanoyl)oxy)benzoate.HCl, (100 mg/kg, C) were administered transdermally. The number of writhings that occurred when mice were administered the acetic acid solution were counted, and the rate of inhibition based on the control group which was not pretreated with any test compounds was calculated. […] Group A was the control group.

rats = assay: Antipyretic activity in rats given E. coli suspension as pyrogen; assay type: in vivo; details: 100 mg/kg transdermally
Experimental: Rats received a sterilized E. coli suspension as a pyrogen. The control group was group A. 2 hours later, N-acetyl-p-aminophenyl dimethylaminobutyrate.HCl (100 mg/kg, B) and 4-acetamidophenyl 2((4-(dimethylamino)butanoyl)oxy)benzoate.HCl, (100 mg/kg, C) were administered transdermally respectively. The body temperature of rats was taken at 90 min. intervals before and after the administration of the test compounds.

[4] = In vivo transportation: amounts in organs and tissue of rats after application to back skin; details: 6 hours after 20% in 1 mL 50% ethanol on 10 cm^2 back skin
Experimental: N-Acetyl-p-aminophenyl dimethylaminobutyrate.HCl (20% in 1 mL of 50% ethanol) was applied to about 10 cm^2 skin on the backs of rats (˜200 g). After 6 hours, the rats were terminated, and methanol (5 mL) was added to 1 g of tissue on the back of rat (under the skin), 1 ml of blood, 1 g of liver, 1 g of kidney, and 1 g of brain respectively (the tissue, liver, kidney or brain was washed with pH 7.2 buffer for three times) and the mixtures were homogenized. The samples were then centrifuged for 5 min and analyzed using HPLC.

[5] = water (aqueous), read-out: Solubility

SMILES	LD50 (in vivo) [mg/kg]	solubility [1, 5] [mg/mL]	In vitro Penetration rate (apparent flux) [2] [μg/cm^2/h]	Plasma concentration of the parent compound (peak plasma level) [3] [µg/mL]	t (time to peak plasma level of the parent compound) ([3]; parent compound) [h]	rate of writhings inhibition (mice) [%]	solubility [1] [mg/mL]	t (time to peak plasma level of the parent compound) ([3]; prodrug compound) [h]	body temperature, t = 0 min. (rats)	body temperature, t = 90 min. (rats)	body temperature, t = 180 min. (rats)	body temperature, t = 270 min. (rats)	other results
CC(=O)Nc1ccc(OC(=O)c2ccccc2O)cc1 [acetaminosalol, 4-acetamidophenyl salicylate, reference compound]	550	< 0.1	10	0.1	~5	–	–	–	–	–	–	–	–
CC(=O)Nc1ccc(OC(=O)c2ccccc2OC(=O)CCCN(C)C)cc1.Cl [4-acetamidophenyl 2((4-(dimethylamino)butanoyl)oxy)benzoate.HCl]	–	–	1800	30.0	–	55	>400	~0.833	37.27 ± 0.06	36.63 ± 0.05	36.52 ± 0.08	36.50 ± 0.07	–
CC(=O)Nc1ccc(OC(=O)CCCN(C)C)cc1.Cl [N-Acetyl-p-Aminophenyl Dimethylaminobutyrate.HCl]	–	–	1500	30.0	–	55	>400	~0.833	37.32 ± 0.06	36.61 ± 0.05	36.50 ± 0.08	36.50 ± 0.07	N-acetyl-p-aminophenyl dimethylaminobutyrate detected in blood [4]: 10 ± 4 µg/g; N-acetyl-p-aminophenyl dimethylaminobutyrate detected in brain [4]: 3 ± 3 µg/g; N-acetyl-p-aminophenyl dimethylaminobutyrate detected in kidney [4]: 6 ± 4 µg/g; N-acetyl-p-aminophenyl dimethylaminobutyrate detected in liver [4]: 7 ± 4 µg/g; N-acetyl-p-aminophenyl dimethylaminobutyrate detected in under-skin tissue [4]: 15 ± 8 µg/g; acetaminophen detected in blood [4]: 30 ± 8 µg/g; acetaminophen detected in brain [4]: 10 ± 8 µg/g; acetaminophen detected in kidney [4]: 20 ± 10 µg/g; acetaminophen detected in liver [4]: 20 ± 10 µg/g; acetaminophen detected in under-skin tissue [4]: 60 ± 10 µg/g
CC(=O)Nc1ccc(O)cc1 [acetaminophen, N-Acetyl-p-aminophenol, reference compound]	340	< 0.2	10	0.1	~5	–	–	–	–	–	–	–	–
